Measurements reported in ChEMBL document CHEMBL1137837 (Bioorg Med Chem Lett, 2004).

What was measured:
[1] = Partition coefficient (logD); format: physicochemical; settings: octanol/water
Oryctolagus cuniculus [2] = species on record: Oryctolagus cuniculus; experiment: Concentration required to inhibit electrically induced contraction of superfused guinea-pig trachea was determined
[3] = biological target: Beta-2 adrenergic receptor (Homo sapiens, UniProt P07550)
Description: Binding affinity for human beta-2 adrenergic receptor

Oryctolagus cuniculus [4] = species on record: Oryctolagus cuniculus; experiment: Duration action in guinea pig

Chain of Beta-2 adrenergic receptor (P07550 whole entry): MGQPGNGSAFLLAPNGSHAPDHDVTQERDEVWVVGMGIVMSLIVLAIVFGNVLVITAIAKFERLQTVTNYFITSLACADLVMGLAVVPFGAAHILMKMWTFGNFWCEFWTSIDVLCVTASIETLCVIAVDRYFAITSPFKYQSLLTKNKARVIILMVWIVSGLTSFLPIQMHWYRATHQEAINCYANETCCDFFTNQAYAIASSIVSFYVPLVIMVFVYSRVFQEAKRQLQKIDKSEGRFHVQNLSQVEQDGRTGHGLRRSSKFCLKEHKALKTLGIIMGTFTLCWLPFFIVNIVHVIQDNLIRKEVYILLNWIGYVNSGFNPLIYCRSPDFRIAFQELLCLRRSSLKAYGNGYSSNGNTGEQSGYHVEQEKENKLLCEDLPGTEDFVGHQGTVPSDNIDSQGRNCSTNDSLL

Compound | logD ([1]; read-out: logD) | IC50 (Oryctolagus cuniculus [2]) [nM] | Ki [3] [nM] | logD [1] | Duration (Oryctolagus cuniculus [4]) [h]
O=CNc1cc([C@@H](O)CNCCc2cccc(OCCCCc3ccccc3)c2)ccc1O | 2.83 | 114 | 8.5 | – | –
OCc1cc(C(O)CNCCCCCCOCCCCc2ccccc2)ccc1O (stereo unspecified) [SALMETEROL] | – | – | – | 1.24 | –
O=CNc1cc([C@@H](O)CNCCc2cccc(OCCCOc3ccccc3)c2)ccc1O | 2 | 164 | 3.3 | 2.49 | 5.43
O=CNc1cc([C@@H](O)CNCCc2ccc(OCCc3ccccc3)cc2)ccc1O | 1.67 | 1.1 | 7.8 | – | –
O=CNc1cc([C@@H](O)CNCCc2ccc(Oc3ccccc3)cc2)ccc1O | 1.95 | 120 | 35.4 | – | –
O=CNc1cc([C@@H](O)CNCCc2ccc(OC3Cc4ccccc4C3)cc2)ccc1O | 2.95 | 251 | 11.6 | – | –
O=CNc1cc([C@@H](O)CNCCc2ccc(OCCCc3ccccc3)cc2)ccc1O | 2.35 | 38 | 5.9 | – | –
O=CNc1cc([C@@H](O)CNCCc2ccc(OCCCCc3ccccc3)cc2)ccc1O | 2.83 | 71 | 9.2 | 2.76 | 6.62
